“And” between values parts separate entries of the source, which are not always exact repeats. Equal values may be shown once.
Assay: xn = mol fraction of the nth substance listed
Details: Gas, Buoyancy - hydrostatic balance with magnetic suspension - two sinkers

C [methane] + CCC
Details	mass density
273.15 K, 931.05 kPa, x1 = 0.5069	13.4744 kg/m3
273.15 K, 971.34 kPa, x1 = 0.5069	14.1245 kg/m3
273.15 K, 971.91 kPa, x1 = 0.5069	14.1339 kg/m3
273.15 K, 972.48 kPa, x1 = 0.5069	14.1428 kg/m3
273.15 K, 980.94 kPa, x1 = 0.5069	14.2794 kg/m3
273.15 K, 986.21 kPa, x1 = 0.5069	14.3656 kg/m3
273.15 K, 991.45 kPa, x1 = 0.5069	14.4504 kg/m3
273.15 K, 1009.5 kPa, x1 = 0.5069	14.7466 kg/m3 and 14.7469 kg/m3
273.15 K, 1009.6 kPa, x1 = 0.5069	14.7472 kg/m3
273.15 K, 1015.4 kPa, x1 = 0.5069	14.8425 kg/m3
273.15 K, 1015.5 kPa, x1 = 0.5069	14.8423 kg/m3
273.15 K, 1299.2 kPa, x1 = 0.7498	14.1894 kg/m3
273.15 K, 1700.4 kPa, x1 = 0.7498	19.0431 kg/m3 and 19.0434 kg/m3
273.15 K, 1999 kPa, x1 = 0.7498	22.8336 kg/m3
273.15 K, 1999.7 kPa, x1 = 0.7498	22.843 kg/m3
273.15 K, 2000.5 kPa, x1 = 0.7498	22.8522 kg/m3
273.15 K, 2295.4 kPa, x1 = 0.7498	26.7552 kg/m3
273.15 K, 2297.1 kPa, x1 = 0.7498	26.7787 kg/m3
273.15 K, 2297.8 kPa, x1 = 0.7498	26.7892 kg/m3
273.15 K, 2309.7 kPa, x1 = 0.7498	26.9494 kg/m3
273.15 K, 2310.5 kPa, x1 = 0.7498	26.9603 kg/m3
273.15 K, 2311.3 kPa, x1 = 0.7498	26.971 kg/m3
273.16 K, 500.9 kPa, x1 = 0.7498	5.2231 kg/m3
273.16 K, 1299.2 kPa, x1 = 0.7498	14.1894 kg/m3
274.02 K, 674.01 kPa, x1 = 0.2658	12.0842 kg/m3
274.13 K, 674.35 kPa, x1 = 0.2658	12.084 kg/m3
274.25 K, 674.71 kPa, x1 = 0.2658	12.0838 kg/m3
274.37 K, 675.08 kPa, x1 = 0.2658	12.0836 kg/m3
274.5 K, 675.47 kPa, x1 = 0.2658	12.0837 kg/m3
274.64 K, 675.87 kPa, x1 = 0.2658	12.0831 kg/m3
274.78 K, 676.29 kPa, x1 = 0.2658	12.0823 kg/m3
274.93 K, 676.74 kPa, x1 = 0.2658	12.0821 kg/m3
275.09 K, 677.21 kPa, x1 = 0.2658	12.0819 kg/m3
275.26 K, 677.71 kPa, x1 = 0.2658	12.0812 kg/m3
275.43 K, 678.23 kPa, x1 = 0.2658	12.0807 kg/m3
275.61 K, 678.78 kPa, x1 = 0.2658	12.0804 kg/m3
275.81 K, 679.35 kPa, x1 = 0.2658	12.0795 kg/m3
276.01 K, 679.96 kPa, x1 = 0.2658	12.0795 kg/m3
276.22 K, 680.58 kPa, x1 = 0.2658	12.0783 kg/m3
276.44 K, 681.24 kPa, x1 = 0.2658	12.0781 kg/m3
276.67 K, 681.92 kPa, x1 = 0.2658	12.0776 kg/m3
276.89 K, 682.58 kPa, x1 = 0.2658	12.0781 kg/m3
277.08 K, 683.2 kPa, x1 = 0.2658	12.0796 kg/m3
277.2 K, 683.7 kPa, x1 = 0.2658	12.0865 kg/m3
293.14 K, 149.9 kPa, x1 = 0.2658	2.2917 kg/m3 and 2.2913 kg/m3 and 2.2914 kg/m3
293.14 K, 205.57 kPa, x1 = 0.5069	2.5567 kg/m3 and 2.5566 kg/m3
293.14 K, 258.04 kPa, x1 = 0.2658	3.9962 kg/m3
293.14 K, 355.08 kPa, x1 = 0.2658	5.5657 kg/m3
293.14 K, 393.87 kPa, x1 = 0.5069	4.9714 kg/m3
293.14 K, 469.3 kPa, x1 = 0.2658	7.4654 kg/m3 and 7.465 kg/m3
293.14 K, 568.75 kPa, x1 = 0.2658	9.168 kg/m3 and 9.1681 kg/m3
293.14 K, 613.82 kPa, x1 = 0.5069	7.8848 kg/m3
293.14 K, 655.64 kPa, x1 = 0.2658	10.6962 kg/m3
293.14 K, 955.23 kPa, x1 = 0.2658	16.2976 kg/m3
293.14 K, 1006.2 kPa, x1 = 0.5069	13.3635 kg/m3 and 13.3634 kg/m3
293.14 K, 1056.3 kPa, x1 = 0.2658	18.3228 kg/m3 and 18.3227 kg/m3 and 18.3219 kg/m3
293.14 K, 1105.6 kPa, x1 = 0.2658	19.3403 kg/m3
293.14 K, 1105.7 kPa, x1 = 0.2658	19.3405 kg/m3
293.14 K, 1209.2 kPa, x1 = 0.5069	16.3578 kg/m3
293.14 K, 1399.6 kPa, x1 = 0.5069	19.2779 kg/m3
293.14 K, 1807.2 kPa, x1 = 0.5069	25.9505 kg/m3 and 25.9502 kg/m3
293.15 K, 205.57 kPa, x1 = 0.5069	2.5568 kg/m3
293.15 K, 258.04 kPa, x1 = 0.2658	3.9961 kg/m3 and 3.9961 kg/m3
293.15 K, 355.08 kPa, x1 = 0.2658	5.5657 kg/m3 and 5.5657 kg/m3
293.15 K, 393.88 kPa, x1 = 0.5069	4.9713 kg/m3 and 4.9715 kg/m3
293.15 K, 469.3 kPa, x1 = 0.2658	7.4651 kg/m3
293.15 K, 568.76 kPa, x1 = 0.2658	9.1679 kg/m3
293.15 K, 613.83 kPa, x1 = 0.5069	7.885 kg/m3 and 7.8849 kg/m3
293.15 K, 655.65 kPa, x1 = 0.2658	10.6965 kg/m3 and 10.6961 kg/m3
293.15 K, 803.71 kPa, x1 = 0.5069	10.4888 kg/m3
293.15 K, 803.74 kPa, x1 = 0.5069	10.4889 kg/m3
293.15 K, 803.76 kPa, x1 = 0.5069	10.4892 kg/m3
293.15 K, 857.4 kPa, x1 = 0.2658	14.4071 kg/m3 and 14.4072 kg/m3
293.15 K, 955.25 kPa, x1 = 0.2658	16.2978 kg/m3 and 16.2977 kg/m3
293.15 K, 1006.2 kPa, x1 = 0.5069	13.3633 kg/m3
293.15 K, 1105.7 kPa, x1 = 0.2658	19.3404 kg/m3
293.15 K, 1209.4 kPa, x1 = 0.5069	16.361 kg/m3
293.15 K, 1209.7 kPa, x1 = 0.5069	16.3642 kg/m3
293.15 K, 1399.6 kPa, x1 = 0.5069	19.2776 kg/m3
293.15 K, 1605.7 kPa, x1 = 0.5069	22.5751 kg/m3
293.15 K, 1605.8 kPa, x1 = 0.5069	22.5767 kg/m3 and 22.5758 kg/m3
293.15 K, 1807.2 kPa, x1 = 0.5069	25.9502 kg/m3
294.01 K, 1223.6 kPa, x1 = 0.2658	21.7481 kg/m3
294.04 K, 1223.7 kPa, x1 = 0.2658	21.7478 kg/m3
294.06 K, 1223.9 kPa, x1 = 0.2658	21.7477 kg/m3
294.09 K, 1224 kPa, x1 = 0.2658	21.7474 kg/m3
294.12 K, 1224.2 kPa, x1 = 0.2658	21.747 kg/m3
294.15 K, 1224.3 kPa, x1 = 0.2658	21.7472 kg/m3
294.18 K, 1224.5 kPa, x1 = 0.2658	21.7471 kg/m3
294.21 K, 1224.7 kPa, x1 = 0.2658	21.7472 kg/m3
294.25 K, 1224.9 kPa, x1 = 0.2658	21.7472 kg/m3
294.28 K, 1225.2 kPa, x1 = 0.2658	21.747 kg/m3
294.32 K, 1225.4 kPa, x1 = 0.2658	21.747 kg/m3
294.37 K, 1225.6 kPa, x1 = 0.2658	21.747 kg/m3
294.41 K, 1225.9 kPa, x1 = 0.2658	21.7466 kg/m3
294.46 K, 1226.2 kPa, x1 = 0.2658	21.7464 kg/m3
294.5 K, 1226.4 kPa, x1 = 0.2658	21.7465 kg/m3
294.56 K, 1226.7 kPa, x1 = 0.2658	21.7464 kg/m3
294.61 K, 1227 kPa, x1 = 0.2658	21.746 kg/m3
294.67 K, 1227.4 kPa, x1 = 0.2658	21.7447 kg/m3
294.74 K, 1227.7 kPa, x1 = 0.2658	21.744 kg/m3
294.81 K, 1228.1 kPa, x1 = 0.2658	21.7437 kg/m3
294.88 K, 1228.5 kPa, x1 = 0.2658	21.7435 kg/m3
294.95 K, 1228.9 kPa, x1 = 0.2658	21.743 kg/m3
295.11 K, 1229.9 kPa, x1 = 0.2658	21.7426 kg/m3
295.2 K, 1230.4 kPa, x1 = 0.2658	21.7417 kg/m3
295.29 K, 1230.9 kPa, x1 = 0.2658	21.741 kg/m3
295.39 K, 1231.4 kPa, x1 = 0.2658	21.7403 kg/m3
295.5 K, 1232 kPa, x1 = 0.2658	21.7395 kg/m3
295.6 K, 1232.6 kPa, x1 = 0.2658	21.7391 kg/m3
295.72 K, 1233.3 kPa, x1 = 0.2658	21.738 kg/m3
295.84 K, 1234 kPa, x1 = 0.2658	21.7373 kg/m3
295.97 K, 1234.7 kPa, x1 = 0.2658	21.7364 kg/m3
296.1 K, 1235.4 kPa, x1 = 0.2658	21.7356 kg/m3
296.24 K, 1236.2 kPa, x1 = 0.2658	21.7346 kg/m3
296.39 K, 1237 kPa, x1 = 0.2658	21.7335 kg/m3
296.55 K, 1237.9 kPa, x1 = 0.2658	21.7324 kg/m3
296.71 K, 1238.8 kPa, x1 = 0.2658	21.731 kg/m3
296.88 K, 1239.8 kPa, x1 = 0.2658	21.7302 kg/m3
297.07 K, 1240.8 kPa, x1 = 0.2658	21.7284 kg/m3
297.26 K, 1241.9 kPa, x1 = 0.2658	21.7273 kg/m3
297.45 K, 1243 kPa, x1 = 0.2658	21.7257 kg/m3
297.66 K, 1244.1 kPa, x1 = 0.2658	21.7254 kg/m3
297.86 K, 1245.3 kPa, x1 = 0.2658	21.7253 kg/m3
298.04 K, 1246.4 kPa, x1 = 0.2658	21.7265 kg/m3
298.15 K, 1247.3 kPa, x1 = 0.2658	21.7319 kg/m3
